From ChEMBL document CHEMBL4052714, “Synthesis and antibacterial activity of novel 4″-O-(1-aralkyl-1,2,3-triazol-4-methyl-carbamoyl) azithromycin analogs” (2017)
Converted amounts (≈) assume the structure as drawn.

Experiments:
Type in all cases: functional
Staphylococcus aureus [1] = assay: Antibacterial activity against erythromycin-susceptible Staphylococcus aureus ATCC 25923
Streptococcus pneumoniae [2] = assay: Antibacterial activity against erythromycin-resistant Streptococcus pneumoniae A22072 expressing mefA gene
Pseudomonas aeruginosa = assay: Antibacterial activity against Pseudomonas aeruginosa ATCC 27853
Streptococcus pneumoniae [3] = assay: Antibacterial activity against erythromycin-resistant Streptococcus pneumoniae AB11 expressing ermB/mefA gene
Streptococcus pneumoniae [4] = assay: Antibacterial activity against erythromycin-susceptible Streptococcus pneumoniae ATCC 49619
Staphylococcus aureus [5] = assay: Antibacterial activity against methicillin-susceptible Staphylococcus aureus ATCC 29213
Escherichia coli = assay: Antibacterial activity against Escherichia coli ATCC 25922
Streptococcus pyogenes [6] = assay: Antibacterial activity against erythromycin-susceptible Streptococcus pyogenes isolate S2
Streptococcus pyogenes [7] = assay: Antibacterial activity against erythromycin-resistant Streptococcus pyogenes isolate R2
Streptococcus pneumoniae [8] = assay: Antibacterial activity against erythromycin-resistant Streptococcus pneumoniae B1 expressing ermB gene
Streptococcus pneumoniae [9] = assay: Potency index, ratio of clarithromycin MIC to compound MIC for erythromycin-resistant Streptococcus pneumoniae AB11 expressing ermB/mefA gene
Streptococcus pneumoniae [10] = assay: Potency index, ratio of clarithromycin MIC to compound MIC for erythromycin-resistant Streptococcus pneumoniae A22072 expressing mefA gene
Streptococcus pneumoniae [11] = assay: Potency index, ratio of azithromycin MIC to compound MIC for erythromycin-resistant Streptococcus pneumoniae AB11 expressing ermB/mefA gene
Streptococcus pneumoniae [12] = assay: Potency index, ratio of clarithromycin MIC to compound MIC for erythromycin-resistant Streptococcus pneumoniae B1 expressing ermB gene
Streptococcus pneumoniae [13] = assay: Potency index, ratio of azithromycin MIC to compound MIC for erythromycin-resistant Streptococcus pneumoniae A22072 expressing mefA gene
Streptococcus pneumoniae [14] = assay: Potency index, ratio of azithromycin MIC to compound MIC for erythromycin-resistant Streptococcus pneumoniae B1 expressing ermB gene

SMILES	MIC (Staphylococcus aureus [1])	MIC (Streptococcus pneumoniae [2])	MIC (Pseudomonas aeruginosa)	MIC (Streptococcus pneumoniae [3])	MIC (Streptococcus pneumoniae [4])	MIC (Staphylococcus aureus [5])	MIC (Escherichia coli)	MIC (Streptococcus pyogenes [6])	MIC (Streptococcus pyogenes [7])	MIC (Streptococcus pneumoniae [8])	Ratio (Streptococcus pneumoniae [9])	Ratio (Streptococcus pneumoniae [10])	Ratio (Streptococcus pneumoniae [11])	Ratio (Streptococcus pneumoniae [12])	Ratio (Streptococcus pneumoniae [13])	Ratio (Streptococcus pneumoniae [14])
CC[C@H]1OC(=O)[C@H](C)[C@@H](O[C@H]2C[C@@](C)(OC)[C@@H](OC(=O)NCc3cn(Cc4cccc(C)c4)nn3)[C@H](C)O2)[C@H](C)[C@@H](O[C@@H]2O[C@H](C)C[C@H](N(C)C)[C@H]2O)[C@](C)(O)C[C@@H](C)CN(C)[C@H](C)[C@@H](O)[C@]1(C)O	1 µg/mL (≈ 1.02 µM)	1 µg/mL (≈ 1.02 µM)	32 µg/mL (≈ 32.7 µM)	1 µg/mL (≈ 1.02 µM)	0.5 µg/mL (≈ 0.512 µM)	16 µg/mL (≈ 16.4 µM)	32 µg/mL (≈ 32.7 µM)	0.03 µg/mL (≈ 0.0307 µM)	32 µg/mL (≈ 32.7 µM)	1 µg/mL (≈ 1.02 µM)						
CC[C@H]1OC(=O)[C@H](C)[C@@H](O[C@H]2C[C@@](C)(OC)[C@@H](OC(=O)NCc3cn(Cc4c(Cl)cccc4Cl)nn3)[C@H](C)O2)[C@H](C)[C@@H](O[C@@H]2O[C@H](C)C[C@H](N(C)C)[C@H]2O)[C@](C)(O)C[C@@H](C)CN(C)[C@H](C)[C@@H](OC(=O)NCc2ccc(OC)cc2)[C@]1(C)O	0.25 µg/mL (≈ 0.209 µM)	0.03 µg/mL (≈ 0.0251 µM)	16 µg/mL (≈ 13.4 µM)	0.25 µg/mL (≈ 0.209 µM)	0.06 µg/mL (≈ 0.0502 µM)	16 µg/mL (≈ 13.4 µM)	16 µg/mL (≈ 13.4 µM)	< 0.002 µg/mL	1 µg/mL (≈ 0.837 µM)	0.125 µg/mL (≈ 0.105 µM)	1024 - 2048	32 - 133	1024 - 2048	1024 - 2133	32 - 133	1024 - 2133
CC[C@H]1OC(=O)[C@H](C)[C@@H](O[C@H]2C[C@@](C)(OC)[C@@H](OC(=O)NCc3cn(Cc4c(Cl)cccc4Cl)nn3)[C@H](C)O2)[C@H](C)[C@@H](O[C@@H]2O[C@H](C)C[C@H](N(C)C)[C@H]2O)[C@](C)(O)C[C@@H](C)CN(C)[C@H](C)[C@H]2OC(=O)O[C@@]21C	4 µg/mL (≈ 3.78 µM)	0.25 µg/mL (≈ 0.236 µM)	64 µg/mL (≈ 60.5 µM)	0.25 µg/mL (≈ 0.236 µM)	1 µg/mL (≈ 0.945 µM)	32 µg/mL (≈ 30.2 µM)	128 µg/mL (≈ 121 µM)	0.125 µg/mL (≈ 0.118 µM)	16 µg/mL (≈ 15.1 µM)	1 µg/mL (≈ 0.945 µM)			1024		16	128
CC[C@H]1OC(=O)[C@H](C)[C@@H](O[C@H]2C[C@@](C)(OC)[C@@H](OC(=O)NCc3cn(Cc4ccc([N+](=O)[O-])cc4)nn3)[C@H](C)O2)[C@H](C)[C@@H](O[C@@H]2O[C@H](C)C[C@H](N(C)C)[C@H]2O)[C@](C)(O)C[C@@H](C)CN(C)[C@H](C)[C@@H](O)[C@]1(C)O	1 µg/mL (≈ 0.992 µM)	2 µg/mL (≈ 1.98 µM)	32 µg/mL (≈ 31.7 µM)	1 µg/mL (≈ 0.992 µM)	1 µg/mL (≈ 0.992 µM)	16 µg/mL (≈ 15.9 µM)	32 µg/mL (≈ 31.7 µM)	0.03 µg/mL (≈ 0.0298 µM)	64 µg/mL (≈ 63.5 µM)	1 µg/mL (≈ 0.992 µM)						
CC[C@H]1OC(=O)[C@H](C)[C@@H](O[C@H]2C[C@@](C)(OC)[C@@H](OC(=O)NCc3cn(Cc4ccc(Cl)cc4Cl)nn3)[C@H](C)O2)[C@H](C)[C@@H](O[C@@H]2O[C@H](C)C[C@H](N(C)C)[C@H]2O)[C@](C)(O)C[C@@H](C)CN(C)[C@H](C)[C@@H](OC(=O)NCc2ccc(OC)cc2)[C@]1(C)O	0.25 µg/mL (≈ 0.209 µM)	0.125 µg/mL (≈ 0.105 µM)	16 µg/mL (≈ 13.4 µM)	0.25 µg/mL (≈ 0.209 µM)	0.06 µg/mL (≈ 0.0502 µM)	16 µg/mL (≈ 13.4 µM)	16 µg/mL (≈ 13.4 µM)	< 0.002 µg/mL	8 µg/mL (≈ 6.69 µM)	0.125 µg/mL (≈ 0.105 µM)	1024 - 2048	32 - 133	1024 - 2048	1024 - 2133	32 - 133	1024 - 2133
CC[C@H]1OC(=O)[C@H](C)[C@@H](O[C@H]2C[C@@](C)(OC)[C@@H](OC(=O)NCc3cn(Cc4ccccc4C)nn3)[C@H](C)O2)[C@H](C)[C@@H](O[C@@H]2O[C@H](C)C[C@H](N(C)C)[C@H]2O)[C@](C)(O)C[C@@H](C)CN(C)[C@H](C)[C@@H](O)[C@]1(C)O	1 µg/mL (≈ 1.02 µM)	0.5 µg/mL (≈ 0.512 µM)	64 µg/mL (≈ 65.5 µM)	0.5 µg/mL (≈ 0.512 µM)	0.25 µg/mL (≈ 0.256 µM)	16 µg/mL (≈ 16.4 µM)	16 µg/mL (≈ 16.4 µM)	0.03 µg/mL (≈ 0.0307 µM)	64 µg/mL (≈ 65.5 µM)	0.5 µg/mL (≈ 0.512 µM)						
